Assay results taken from patent US20220184071A1, “GEPOTIDACIN FOR USE IN THE TREATMENT OF BACTERIAL URINARY TRACT INFECTIONS” (GlaxoSmithKline Intellectual Property Development Limited, priority 2019, published 2022).
≈ marks a conversion by molar mass, not a printed value. Like-named read-outs stand apart in the source and are kept apart here.

What was measured:
S. saprophyticus = test: Phase IIa baseline uropathogen susceptibility testing (CLSI broth microdilution); format: cell-based; details: Staphylococcus saprophyticus; Participant 8; read-out: GEP MIC
Procedure: (§1) This phase IIa single center study evaluated the safety, tolerability, pharmacokinetics, and efficacy of oral gepotidacin 1500 mg BID for 5 days in female subjects with acute cystitis. Clean catch mid-stream urine specimens were obtained for quantitative culture by standard methods. Urine samples were taken from all participants pre-treatment (baseline) and at all post-baseline visits. All urine samples were sent to a central laboratory (PPD Global Clinical Laboratories, Highland Heights, Ky., USA) for Gram stain, quantitative culture, pathogen identification and susceptibility testing. See FIG. 1 for participant disposition and study outline.
(§2) Susceptibility testing by CLSI broth microdilution and gradient diffusion (fosfomycin only) was conducted (CLSI, 2015, Methods for dilution antimicrobial susceptibility tests for bacteria that grow aerobically; approved standard-tenth edition; and CLSI, 2018. Performance Standards for Antimicrobial Susceptibility Testing; Twenty-seventh Informational Supplement M100-S28). Inclusion in the microbiological intent-to-treat population (micro-ITT), required growth of a qualifying baseline uropathogen (≥10^5 CFU/mL). See FIG. 2 for the baseline algorithm.

qualifying uropathogens = test: as above; format: cell-based; details: 8 qualifying baseline uropathogens
Procedure: as §1, §2

[1] = tested on: Staphylococcus epidermidis; test: MIC by CLSI broth microdilution in CAMHB and urine, Example 5 Method 2; format: cell-based; details: for Mean MIC: n = 4; for MIC: Staphylococcus epidermidis
Procedure: The compounds were tested in serial two-fold dilutions and the minimum inhibitory concentration (MIC) was determined as the lowest concentration of the compound that inhibited visible growth.
In particular, gepotidacin was tested against 4 strains of Staphylococcus epidermidis from the collection of isolates at Laboratory Specialists, Inc., Westlake, Ohio.
Levofloxacin was included as the comparator in the study to determine the effect of urine on the in vitro activity of gepotidacin against Staphylococcus epidermidis. MICs were determined by broth microdilution according CLSI methods.
The data shown in the table below are results from an in vitro study conducted with the same S. epidermidis isolates described above, to determine the effect of urine on the in vitro activity of gepotidacin and levofloxacin against S. epidermidis. Study strains were tested for MICs according to reference CLSI broth microdilution method using cation-adjusted Mueller Hinton Broth (CAMHB) and with the addition of 25%, 50% and 100% urine (not pH adjusted, pH 6.42) and 100% urine (pH adjusted, 7.31 and 8.07).

S. epidermidis = test: MIC by CLSI broth microdilution, Example 5 second study (skin and soft tissue isolates); format: cell-based; details: Staphylococcus epidermidis; 13 isolates, 2013-2014
From the text: A second study tested gepotidacin by CLSI broth microdilution against bacterial isolates collected from patients with acute bacterial skin and soft tissue infections between 2013-2014. Amoxicillin/clavulanic acid, linezolid, fusidic acid, ceftriaxone, ceftaroline, vancomycin, penicillin, quinupristin/dalfopristin, erythromycin, clindamycin, meropenem, tetracycline, chloramphenicol, flucloxacillin, telavancin, daptomycin, trimethoprim/sulfamethoxazole, gentamicin, levofloxacin, tigecycline and cefuroxime were included as comparators. MICs were determined by broth microdilution according to CLSI methods.

E. coli ALL = test: Immunocompetent mouse kidney infection (pyelonephritis/UTI) model PK/PD; format: in vivo
Procedure: PK and PD studies using gepotidacin were conducted in murine (male CD-1 mice) thigh and kidney infections. The administered doses ranged from 1 to 200 mg/kg SC every 6 hours starting 1h post infection. Infected tissues were evaluated for bacterial burden at 24 h post infection (baseline controls at 1 h post infection).
Efficacy was determined against E. coli ALL, 997577, ATCC25922, IR5 and NCTC13441 (MICs of 1 to 4 μg/mL) in thigh-infected neutropenic (I−) mice and against E. coli ALL in kidney-infected immunocompetent (I+) and I− mice. The PopPK model was used to determine GEP exposures associated with efficacy. PK-PD analyses were conducted using Phoenix WinNonLin 6.3 (Pharsight). The change in login colony forming units (CFU) from baseline were correlated with free drug (f) AUC:MIC using an inhibitory model from the Phoenix library, and model parameter values for each isolate were used to calculate the plasma fAUC:MIC associated with stasis, 1- or 2-login reductions in CFU.
PD studies were conducted using thigh and/or kidney infection models in neutropenic or competent mice (N=5/group). Mice were infected with a bacterial suspension in log phase: 100 μL in the left thigh muscle or 50 μL in each of both kidneys (100 μl total). Final inocula across all isolates were 6.0 to 7.0 login CFU/mouse. Dose-ranging studies were conducted with 5 isolates (see Table 1). Starting 1 hr after infection, GEP was given SC (0.2 mL/mouse) at discrete doses of 1-200 mg/kg every 6 hours (q6) for a 24-hour period (4 doses in total). Mice were euthanized 24 hr after start of therapy (6 hr after the last dose), and infected thighs or kidneys were processed to determine viable bacterial counts (CFU). Baseline CFU were obtained from untreated mice at 1 hr post infection and growth control CFU from saline-treated mice at 24 hr.
NCA analyses were conducted with the simulated data.
PK-PD analysis was conducted using Phoenix WinNonLin 6.3 (Pharsight): • Log10 colony forming units (CFU) from each group were correlated with PK-PD parameters using several inhibitory models from the Phoenix library. • Model parameter values for each isolate were used to calculate the PK-PD parameter value associated with stasis, 1-log or 2-log reductions from baseline 1 h controls.

[2] = MIC, conclusion to Example 1 Methods 1 and 2; format: cell-based; details: at least one strain of every organism listed
Procedure: Antimicrobial activity was determined by broth microdilution using the CLSI recommended procedure.
Antimicrobial activity was determined in a second study by […] using the CLSI recommended procedure in serial two-fold dilutions and the minimum inhibitory concentration (MIC) was determined as the lowest concentration of the compound that inhibited visible growth.

## O=c1ccc2ncc(=O)n3c2n1C[C@H]3CN1CCC(NCc2cc3c(cn2)OCCC3)CC1 [gepotidacin, (2R)-2-({4-[(3,4-dihydro-2H-pyrano[2,3-c]pyridin-6-ylmethyl)amino]-1-piperidinyl}methyl)-1,2-dihydro-3H,8H-2a,5,8a-triazaacenaphthylene-3,8-dione]
S. saprophyticus
  MIC: 0.06 µg/mL (≈ 0.134 µM)
Qualifying uropathogens
  Gepotidacin MICs ranged: 0.06 to 4 µg/mL
[1]; 2 isolates of methicillin-resistant S. epidermidis
  MIC range: 0.25 to 0.5 µg/mL
[1]; 25% Urine (pH 7.09) vs CAMHB
  Mean Dilution Difference: −0.75
  Mean difference: −0.17
  N(%) ± 1 dilution: 4 (100%)
  N(%) ± 2 dilution: 4 (100%)
[1]; 25% Urine (pH 7.09)
  Mean MIC: 0.25 µg/mL
[1]; 50% Urine (6.99) vs CAMHB
  Mean Dilution Difference: −1.01
  Mean difference: −0.21
  N(%) ± 1 dilution: 4 (100%)
  N(%) ± 2 dilution: 4 (100%)
[1]; 50% Urine (6.99)
  Mean MIC: 0.21 µg/mL
[1]; 100% Urine (pH 6.42) vs CAMHB
  Mean Dilution Difference: −0.26
  Mean difference: −0.07
  N(%) ± 1 dilution: 4 (100%)
  N(%) ± 2 dilution: 4 (100%)
[1]; 100% Urine (pH 6.42)
  Mean MIC: 0.35 µg/mL
[1]; 100% Urine (pH 7.31) vs CAMHB
  Mean Dilution Difference: 0.25
  Mean difference: 0.08
  N(%) ± 1 dilution: 4 (100%)
  N(%) ± 2 dilution: 4 (100%)
[1]; 100% Urine (pH 7.31)
  Mean MIC: 0.5 µg/mL
[1]; 100% Urine (pH 8.07) vs CAMHB
  Mean Dilution Difference: 0.00
  Mean difference: 0.00
  N(%) ± 1 dilution: 4 (100%)
  N(%) ± 2 dilution: 4 (100%)
[1]; 100% Urine (pH 8.07)
  Mean MIC: 0.42 µg/mL
[1]; 100% urine (conclusion)
  mean dilution differences (range): 0 to −0.26
[1]; CAMHB (ref. method, pH 7.2)
  Mean MIC: 0.42 µg/mL
[1]; 2 isolates of methicillin-susceptible S. epidermidis, read-out: MIC
  MIC: 0.5 µg/mL (≈ 1.11 µM)
[1]; at least one strain of methicillin-susceptible or methicillin-resistant S. epidermidis, read-out: MIC
  MIC: ≤ 0.5 µg/mL
[1]; read-out: MICs, methicillin-susceptible and methicillin-resistant isolates tested (conclusion), heading: MICs
  MIC: < 0.5 µg/mL
[1]; addition of urine vs CAMHB
  mean dilution differences (range): 0 to −1.01
[1]; each of the methicillin-resistant S. epidermidis
  MIC fold greater than the levofloxacin MIC: 4 fold
[1]; methicillin-susceptible S. epidermidis
  MIC fold greater than the levofloxacin MIC: 2 fold
S. epidermidis
  MIC90: 0.25 µg/mL (≈ 0.557 µM)
E. coli ALL; I+ (non-neutropenic) mice
  PK-PD target (fAUC/MIC) in immunocompetent vs neutropenic mice: reduced by approx. half
E. coli ALL; Strain ALL, Competent UTI
  Daily fAUC/MIC for 1-log Drop: 3.3
  Daily fAUC/MIC for 2-log Drop: 8.1
  Daily fAUC/MIC for Stasis: 0.7
[2]
  MIC: ≤ 8 µg/mL
